Assay results as given in patent US20020012721A1, “Cooked cereal ingredient-containing products fortified with non-ferric edta and insoluble iron compositions and methods for use” (priority 1998, published 2002).

Legend:
[1] = Iron absorption from fortified corn flakes with milk in women, from radioactivity in circulating erythrocytes; format: in vivo; details: 30 g corn flakes with 150 ml milk, percent iron absorbed normalized by reference dose of ferrous ascorbate
Protocol: An experiment was conducted to validate the effectiveness of combining reduced iron with a non-ferric EDTA salt. Six sources of iron were compared in a study conducted on women.
The study was performed using a serving of corn flakes, approximately 30 g, with the addition of 150 ml lactose free UHT-treated 2% fat cow's milk. The percentage of iron absorbed by the test subjects was determined from radioactivity present in the circulating erythrocytes. Labeled ^59FeCl3 was used as a tracer in the reference dose of ferrous ascorbate and in the treatments containing FeSO4. Labeled ^55FeCl3 was used as a tracer in the treatments containing elemental reduced iron. The percentage of iron absorbed by the test subjects was normalized by the reference dose of ferrous ascorbate.

[2] = Rat hemoglobin repletion method: iron bioavailability of iron phosphate alone or with Na2EDTA versus FeSO4 in rat diet/Corn Flakes; format: in vivo, Sprague Dawley rats; details: rats; for Percent Absorption Relative to FeSO4: calculated from the slopes; for Slope: hemoglobin gain versus diet iron concentration, common intercept, letters mark estimates that do not differ (P < .10)
Protocol: An additional study was performed to determine the bioavailability of iron phosphate when combined with Na2EDTA. The relative iron bioavailability of the various iron containing compositions in a ready-to-eat cereal product was assayed using a widely accepted method, commonly referred to as the rat hemoglobin repletion method, (modified AOAC method for assessment of relative iron bioavailability), see Williams, S. ed. Official methods of analysis of the Association of Official Analytical Chemists, 14th ed. Arlington, Va. AOAC, 1984; Fritz, J. C. et al., Collaborative Study of rat hemoglobin repletion test for bioavailability of iron, AOAC 1974, 57:513-517. Relative bioavailability of the various iron:EDTA composition was carried out in a series of separate experiments. In each of these experiments, ferrous sulfate was used as the standard or control compound.
Sprague Dawley rats, individually housed in temperature and light controlled units, were fed an iron deficient diet obtained from Harland Tekland Laboratories for 24 days. After this iron depletion phase, the rats were weighed and blood was drawn to test for baseline hemoglobin concentrations. These anemic animals, with hemoglobin levels between […], were then randomly assigned to the control and test groups. Ferrous sulfate, iron phosphate, and iron phosphate with Na2EDTA were separately added to the test diets to achieve concentrations of 6 and 18 and 24 mg iron/kg diet. These diets were then fed to groups of ten animals, ad libitum, for 14 days. Iron levels in the diets, were verified by atomic absorption spectrometry (Blin et al., J. Assoc. Off. Anal. Chem. 1977, 60:1170-1174). After the 14-day test period, hemoglobin concentrations were determined for all animals.
The iron bioavailability of each iron source, assayed relative to ferrous sulfate, was calculated using the slope ratio procedure by comparing the gain in hemoglobin concentration with the iron concentration in the diet (Finney, D. J., Statistical methods in biological assay.2nd ed. 1964; Amine et L., Biological assessment of available iron in food products, J. Agric. Food Chem. 1974, 22:470-476). […] The percent absorption relative to FeSO4 was calculated from the slopes determined from each experiment.
An additional test was conducted feeding rats a purified rat diet/Corn Flakes® fortified with iron phosphate either alone or in combination with Na2EDTA or mixtures of both. […] As described above the bioavailability was determined by assaying the relative change in hemoglobin in rats fed with the various fortified diets with the recommended daily allowance for humans of iron content (RDA).
Three test diets were evaluated: […]

O=S(=O)([O-])[O-].[Fe+2] [(a) FeSO4, FeSO4]
Normalized Absorption ([1]; 25% Daily Value iron): 11.4% | Percent Absorption Relative to FeSO4 [2]: 100% | Slope [2]: 0.30 (c)

O=S(=O)([O-])[O-].[Fe+2] [(b) FeSO4, FeSO4]
Normalized Absorption ([1]; 50% Daily Value iron): 6.9%

O=P([O-])([O-])[O-].[Fe+3] [B) FePO4, FePO4]
Percent Absorption Relative to FeSO4 [2]: 33% | Slope [2]: 0.10 (a)
